≈ marks a conversion by molar mass, not a printed value.
Legend:
CD11b/CD18 = biological target: T1, CD11b/CD18 (Homo sapiens, UniProt P11215); test: Adhesion of JY/CD11b cells to immobilized iC3b; type: cell-based; conditions: dose-dependent; relative to control DMSO treatment
T1 construct: expressed in transfected cells; host or cells: JY (human B lymphoblastoid) cells
Experimental: B. Adhesion Assay of JY/CD11b Cells to Immobilized iC3b
Briefly, each well of a 96-well plate was coated overnight at 4° C. with 50 μl glycophorin (10 μg/ml), iC3b (5 μg/ml) or with anti-CD18 monoclonal antibody (22F12C, 5 μg/ml) and anti-CD11b monoclonal antibody (44AACB, 5 µg/ml) in bicarbonate buffer (pH 9.6). Plates were blocked with human serum albumin in D-PBS for one hr at room temperature. JY cells transfected with CD11b (JY/CD11b cells) (100 μl at 1×10^6 cells/ml) in adhesion buffer were added to each well and incubation was carried out at 37° C. for 30 min. Plates were fixed and analyzed as described above in Example 1. Percentage of cells binding was determined using the equation below. [formula]
Data was normalized using the formula: [formula]

ftsZ [1] = biological target: T2, ftsZ (Escherichia coli, UniProt P0A9A6); test: ftsZ GTPase assay; type: biochemical
T2 sequence (P0A9A6 whole entry): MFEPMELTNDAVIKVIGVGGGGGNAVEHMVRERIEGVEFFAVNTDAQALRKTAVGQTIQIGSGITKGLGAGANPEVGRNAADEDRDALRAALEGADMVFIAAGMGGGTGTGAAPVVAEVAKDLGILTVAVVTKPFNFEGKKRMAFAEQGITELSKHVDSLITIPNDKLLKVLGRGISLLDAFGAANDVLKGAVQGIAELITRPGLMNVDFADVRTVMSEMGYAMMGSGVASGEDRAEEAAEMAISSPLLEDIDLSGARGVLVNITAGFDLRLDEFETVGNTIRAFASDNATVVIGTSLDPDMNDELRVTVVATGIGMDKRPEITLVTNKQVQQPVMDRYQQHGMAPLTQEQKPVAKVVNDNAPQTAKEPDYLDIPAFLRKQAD
Experimental: An alternative assay that may be more sensitive was also devised. In this assay, 100 μg/ml ftsZ was incubated with 0.5 μM ^32P-γ-GTP. The GTPase activity of ftsZ liberates ^32PO4. By terminating the reaction with 25 mg/ml activated charcoal in 100 mM NaH2PO4 and centrifuging the product, the remaining ^32P-γ-GTP is trapped by the charcoal. Accordingly, the ^32PO4 that remains in the supernatant can be measured, providing a measurement of GTPase inhibition.

ftsZ [2] = biological target: T2, ftsZ; test: ftsZ polymerization assay; type: biochemical; conditions: read-out: IC50, ftsZ polymerization screen
Experimental: A polymerization assay for the identification of ftsZ inhibitors that can be performed in microtiter wells has been devised. The polymerization assay is an adaptation of a tubulin polymerization assay [Bollag et al., Cancer Research 55:2325-2333 (1995)], and involves the reversible polymerization of ftsz in a GTP-dependent fashion.
In the presence of GTP and 10 mM CaCl2, 5 nm ftsZ linear polymers assemble into higher order polymers [Yu et al., EMBO 16:5455-5463 (1997)] that are large enough to be trapped by a 0.2 μm filter. The protein that is retained on the filter can be stained and detected in a colorimetric assay. A reaction consisting of 300 μg/ml of ftsZ polymerized by 100 μM GTP was screened against candidate ftsZ inhibitors at 10 μM.

[3] = system: permeable tolC strain overexpressing ENR; test: microbe, parasite or virus in culture; type: cell-based, E. coli; conditions: Escherichia coli, read-out: MIC, ENR-overexpressing strain
Experimental: (§1) A permeable bacteria] strain (AB734 TN10::tolC) was used in the screening method to maximize the ability of the compounds to cross the gram negative cell wall. Assays were conducted in accordance with the NCCLS protocols referenced herein.
(§2) It was of further interest to determine whether those compounds with antimicrobial activity worked in a ENR-dependent fashion. Two strains of the permeable tolC strain were constructed. In the first strain, the ENR protein was overexpressed by placing it under control of its own promoter on a moderate copy number plasmid, and the second strain served as a control including only the plasmid.

[4] = system: permeable tolC strain (plasmid only); test: microbe, parasite or virus in culture; type: cell-based, E. coli; conditions: Escherichia coli, read-out: MIC, control strain
Experimental: as §1, §2

With `O=[N+]([O-])c1cc(Cl)c(Sc2ccc(Cl)cc2Cl)cc1F` [Cmpd C] the “stimulation of CD11b/CD18 binding to iC3b” value (from here on “stimulation”) (CD11b/CD18) was “two times”.
For `CCCCC(CCCC)N(C(=O)CN1CC(c2ccc3c(c2)OCO3)C(C)C1C(C)(C)CCCC)c1ccc(F)c(C)c1` (stereo not shown) [Cmpd H], the “stimulation” value (CD11b/CD18) was “two times”.
For `CCCCC(CCCC)N(C(=O)CN1CC(c2ccc3ccccc3c2)C(C(=O)O)C1c1ccc(OC)cc1)c1ccc(F)c(C)c1` (stereo not shown) [Cmpd I], the “stimulation” value (CD11b/CD18) was “two times”.
`Nc1nc2c(ncn2[C@@H]2O[C@H](COP(=O)(O)OP(=O)(O)O)[C@@H](O)[C@H]2O)c(=O)[nH]1` [GDP] gave an IC50 (ftsZ [1]) of 8 µM and an IC50 (ftsZ [2]) of 250 µM.
`Oc1cc(Cl)ccc1Oc1ccc(Cl)cc1Cl` [triclosan] gave an MIC [3] of 1 µg/mL (≈ 3.45 µM) and an MIC [4] of 0.031 µg/mL (≈ 0.107 µM).
